From patent US20240270821A1, “GIP/GLP1/GCG TRI-RECEPTOR AGONISTS AND USES THEREOF” (priority 2023, published 2024)
Read-outs that look alike come from different tables or passages of the source. Marks after values point to notes of the source that are not given here. Starred links: 1 amine or outer side, 2 acyl side, 3 side chain; linkers in the order of their positions; H or OH if unused. Non-standard residues stand in square brackets, D forms with d. Residues, ends and D or L forms follow the SMILES beside them. Groups on a side chain read outwards from the residue. *: point of attachment. C18 diacid = O=C(O)CCCCCCCCCCCCCCCCC(=O)*; αMePhe(2-F) = C[C@](N)(Cc1ccccc1F)C(=O)O; γGlu = O=C(O)[C@H](CCC(=O)[*:2])N[*:1]; αMe4Pal = C[C@](N)(Cc1ccncc1)C(=O)O; αMeY = C[C@](N)(Cc1ccc(O)cc1)C(=O)O; 4Pal = N[C@@H](Cc1ccncc1)C(=O)O; αMeL = CC(C)C[C@](C)(N)C(=O)O; αMeS = C[C@](N)(CO)C(=O)O; Orn = NCCC[C@H](N)C(=O)O; AEEA = NCCOCCOCC(=O)O; Aib = CC(C)(N)C(=O)O

Legend:
in vivo = test: in vivo; design: species or system Sprague Dawley rats; conditions: male, Sprague Dawley, rat, 4 mg/kg
hGLP-1R [1] = molecular target: T1, hGLP-1R (Homo sapiens, UniProt P43220); test: Functional cAMP activation in the presence of 0.1% casein (no HSA); type: cell-based; conditions: read-out: Relative cAMP EC50, hGLP-1R;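 note: intracellular cAMP rise after 30 min at 37 °C read by HTRF, normalized between buffer only (0%) and maximal control ligand (100%), four-parameter variable-slope fit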
T1 sequence (P43220 24-463): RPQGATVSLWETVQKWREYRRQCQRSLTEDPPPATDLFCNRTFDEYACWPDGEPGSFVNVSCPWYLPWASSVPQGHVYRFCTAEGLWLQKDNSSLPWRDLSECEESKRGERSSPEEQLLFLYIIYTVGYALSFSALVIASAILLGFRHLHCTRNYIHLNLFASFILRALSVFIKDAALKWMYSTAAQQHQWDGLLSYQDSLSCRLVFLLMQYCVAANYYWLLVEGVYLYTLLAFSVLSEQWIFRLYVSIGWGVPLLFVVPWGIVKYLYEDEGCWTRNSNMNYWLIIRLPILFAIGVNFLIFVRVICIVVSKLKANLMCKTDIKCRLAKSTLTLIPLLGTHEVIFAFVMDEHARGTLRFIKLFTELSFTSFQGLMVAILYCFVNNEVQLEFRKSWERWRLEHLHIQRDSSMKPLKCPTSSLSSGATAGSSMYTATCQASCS

hGIPR [2] = molecular target: T2, hGIPR (Homo sapiens, UniProt P48546); test: Functional cAMP activity in the presence of 1% HSA; type: cell-based; conditions: read-out: cAMP Rel EC50, hGIPR
T2 sequence (P48546 22-466): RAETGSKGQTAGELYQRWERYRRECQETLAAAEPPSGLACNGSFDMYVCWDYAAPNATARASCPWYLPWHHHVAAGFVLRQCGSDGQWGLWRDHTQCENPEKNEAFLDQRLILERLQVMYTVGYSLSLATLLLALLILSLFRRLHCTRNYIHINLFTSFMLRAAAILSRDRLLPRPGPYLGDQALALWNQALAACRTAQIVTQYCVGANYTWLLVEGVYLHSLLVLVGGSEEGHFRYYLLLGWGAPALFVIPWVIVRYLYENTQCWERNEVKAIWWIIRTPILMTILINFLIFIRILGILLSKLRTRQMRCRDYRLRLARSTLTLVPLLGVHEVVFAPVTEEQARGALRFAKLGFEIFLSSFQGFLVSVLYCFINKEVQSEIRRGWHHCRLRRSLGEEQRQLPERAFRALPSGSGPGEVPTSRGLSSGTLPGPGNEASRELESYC

human GcgR = human GcgR (Homo sapiens, UniProt P47871); test: Functional cAMP activity in the presence of 1% HSA; type: cell-based; conditions: read-out: cAMP Rel EC50, hGcgR
human GcgR, sequence (P47871 26-477): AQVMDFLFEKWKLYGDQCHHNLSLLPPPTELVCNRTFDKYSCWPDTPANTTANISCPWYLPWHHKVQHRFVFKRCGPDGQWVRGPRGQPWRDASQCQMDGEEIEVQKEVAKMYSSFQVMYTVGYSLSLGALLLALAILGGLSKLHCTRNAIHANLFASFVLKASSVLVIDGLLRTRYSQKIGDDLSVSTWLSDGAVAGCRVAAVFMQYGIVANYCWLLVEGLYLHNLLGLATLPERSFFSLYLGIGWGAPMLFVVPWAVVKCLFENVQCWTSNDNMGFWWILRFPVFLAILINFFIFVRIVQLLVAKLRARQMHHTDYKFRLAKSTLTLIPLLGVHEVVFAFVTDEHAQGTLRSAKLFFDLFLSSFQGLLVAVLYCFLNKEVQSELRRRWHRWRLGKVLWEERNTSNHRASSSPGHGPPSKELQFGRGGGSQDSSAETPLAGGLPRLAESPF

hGcgR = hGcgR (Homo sapiens, UniProt P47871); test: Functional cAMP activation in the presence of 0.1% casein (no HSA); type: cell-based; conditions: read-out: Relative cAMP EC50, hGcgR;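 note: intracellular cAMP rise after 30 min at 37 °C, read by HTRF against a cAMP standard curve, scaled from buffer only (0%) to maximal control ligand response (100%)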
hGcgR, sequence (P47871 26-477): as above

hGIPR [3] = molecular target: T2, hGIPR; test: as above; type: cell-based; conditions: read-out: Relative cAMP EC50, hGIPR
[4] = Body weight in diet-induced obese C57BL/6 mice; type: in vivo; conditions: 10 nmol/kg SC QD, percent of starting weight, DIO mice, mean ± SEM n=5
Method in brief: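 Male C57BL/6 DIO mice (41-50 g, 5 per group, randomized by weight) on calorie-rich diet received subcutaneous doses 30-90 min before dark onset, QD or Q3D for 9-16 days. Body weight measured daily, expressed as percent of starting weight, mean±SEM.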

hGLP-1R [5] = molecular target: T1, hGLP-1R; test: Functional cAMP activity in the presence of 1% HSA; type: cell-based; conditions: read-out: cAMP Rel EC50, hGLP-1R
[6] = in the presence of 0.1% casein (no HSA), geometric mean
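Throughout, for Relative cAMP EC50, hGIPR: intracellular cAMP rise after 30 min at 37 °C read by HTRF against a standard curve, scaled between buffer alone (0%) and top control ligand concentration (100%), four-parameter fit.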

Row | CL/F (in vivo) [mL/min/kg] | half-life (in vivo) [h] | EC50 (hGIPR [2]) [nM] | EC50 (human GcgR) [nM] | EC50 (hGLP-1R [5]) [nM] | EC50 (hGLP-1R [1]) [nM] | EC50 (hGcgR) [nM] | EC50 (hGIPR [3]) [nM] | Compound | EC50 (hGLP-1R [1]; [6]) [nM] | EC50 (hGcgR; [6]) [nM] | EC50 (hGIPR [3]; [6]) [nM] | Body weight (%) ([4]; 14 days) | Body weight (%) ([4]; 15 days) | Body weight (%) ([4]; 9 days)
1 | 3.83 | 8.2 | 2.15 | 176 | 18.8 | – | – | – | CC[C@H](C)[C@H](NC(=O)[C@H](CC(C)C)NC(=O)[C@](C)(Cc1ccc(O)cc1)NC(=O)[C@@H](CCC(=O)O)NC(=O)[C@@H](NC(=O)[C@H](Cc1ccccc1)NC(=O)[C@H](CCCN)NC(=O)C(C)(C)NC(=O)[C@H](CCC(N)=O)NC(=O)[C@H](C)NC(=O)[C@H](CCCCNC(=O)COCCOCCNC(=O)CC[C@H](NC(=O)CCCCCCCCCCCCCCCCC(=O)O)C(=O)O)NC(=O)[C@H](CCCN)NC(=O)[C@H](CC(=O)O)NC(=O)[C@H](CC(C)C)NC(=O)[C@](C)(CC(C)C)NC(=O)[C@@H](NC(=O)[C@](C)(CO)NC(=O)[C@H](Cc1ccncc1)NC(=O)[C@H](CC(=O)O)NC(=O)[C@H](CO)NC(=O)[C@@H](NC(=O)[C@](C)(Cc1ccccc1F)NC(=O)[C@@H](NC(=O)CNC(=O)[C@H](CCC(N)=O)NC(=O)C(C)(C)NC(=O)[C@@H](N)Cc1ccc(O)cc1)[C@@H](C)O)[C@@H](C)O)[C@@H](C)CC)[C@@H](C)CC)C(=O)N[C@@H](CCC(=O)O)C(=O)NCC(=O)NCC(=O)N1CCC[C@H]1C(=O)N[C@@H](CO)C(=O)N[C@@H](CO)C(=O)NCC(=O)N[C@@H](CCC(=O)O)C(=O)N1CCC[C@H]1C(=O)N1CCC[C@H]1C(=O)N1CCC[C@H]1C(=O)N[C@@H](CCC(=O)O)C(N)=O [Example 378] (H-Y[Aib]QGT[αMePhe(2-F)]TSD[4Pal][αMeS]I[αMeL]LD[Orn]K([AEEA-γGlu-C18 diacid])AQ[Aib][Orn]FI[dE][αMeY]LIEGGPSSGEPPPE-NH2) | 0.251 | 1.45 | 0.0213 | – | 68.84 +/− 1.37**** % | –
2 | 3.5 | 13.7 | 1.85 | 254 | 18.6 | 0.254 | 2.24 | 0.0173 | H-Y[Aib]QGT[αMePhe(2-F)]TSD[4Pal]SI[αMeL]LD[Orn]K([AEEA-γGlu-C18 diacid])AQ[αMe4Pal][Orn]FI[dE][αMeY]LIEGGPSSGEPPPEEG-NH2 [Example 475] | – | – | – | – | – | 69.34 ± 2.99
3 | 7.33 | 9.4 | 0.927 | 229 | 7.88 | 0.171 | 2.73 | 0.015 | H-Y[Aib]QGT[αMePhe(2-F)]TSD[4Pal][αMeS]I[αMeL]LD[Orn]K([AEEA-AEEA-γGlu-C18 diacid])AQ[Aib][Orn]FI[dE][αMeY]LIEGGPSSGAPEPSEG-NH2 [Example 472] | – | – | – | – | – | 76.13 ± 2.28
4 | 10 | 11 | 1.62 | 183 | 12.9 | 0.204 | 1.69 | 0.0148 | H-Y[Aib]QGT[αMePhe(2-F)]TSD[4Pal][αMeS]I[αMeL]LD[Orn]K([AEEA-γGlu-C18 diacid])AQ[Aib][Orn]FI[dE][αMeY]LIEGGPSSGEPPPEEG-NH2 [Example 462] | – | – | – | – | – | 73.68 ± 2.82
5 | 16.3 | 6.6 | 1.71 | 111 | 12 | 0.213 | 1.99 | 0.0183 | H-Y[Aib]QGT[αMePhe(2-F)]TSD[4Pal][αMeS]I[αMeL]LD[Orn]K([AEEA-γGlu-C18 diacid])AQ[Aib][Orn]FI[dE][αMeY]LIEGGPSSGEPPPSEG-NH2 [Example 401] | – | – | – | – | 71.54 ± 3.32 % | –

Row | Compound | CL/F (in vivo) [mL/min/kg] | half-life (in vivo) [h] | EC50 (hGIPR [2]) [nM] | EC50 (human GcgR) [nM] | EC50 (hGLP-1R [5]) [nM] | EC50 (hGLP-1R [1]) [nM] | EC50 (hGcgR) [nM] | EC50 (hGIPR [3]) [nM] | EC50 (hGLP-1R [1]; [6]) [nM] | EC50 (hGcgR; [6]) [nM] | EC50 (hGIPR [3]; [6]) [nM] | Body weight (%) ([4]; 14 days) | Body weight (%) ([4]; 15 days) | Body weight (%) ([4]; 9 days)
6 | CC[C@H](C)[C@H](NC(=O)[C@H](Cc1ccccc1)NC(=O)[C@H](CCCN)NC(=O)C(C)(C)NC(=O)[C@H](CCC(N)=O)NC(=O)[C@H](C)NC(=O)[C@H](CCCCNC(=O)COCCOCCNC(=O)CC[C@H](NC(=O)CCCCCCCCCCCCCCCCC(=O)O)C(=O)O)NC(=O)[C@H](CCCN)NC(=O)[C@H](CC(=O)O)NC(=O)[C@H](CC(C)C)NC(=O)[C@](C)(CC(C)C)NC(=O)[C@@H](NC(=O)[C@](C)(CO)NC(=O)[C@H](Cc1ccc(O)cc1)NC(=O)[C@H](CC(=O)O)NC(=O)[C@H](CO)NC(=O)[C@@H](NC(=O)[C@](C)(Cc1ccccc1F)NC(=O)[C@@H](NC(=O)CNC(=O)[C@H](CCC(N)=O)NC(=O)C(C)(C)NC(=O)[C@@H](N)Cc1ccc(O)cc1)[C@@H](C)O)[C@@H](C)O)[C@@H](C)CC)C(=O)N[C@H](CCC(=O)O)C(=O)N[C@@](C)(Cc1ccc(O)cc1)C(=O)N[C@@H](CC(C)C)C(=O)N[C@@H](CC(C)C)C(=O)N[C@@H](CCC(=O)O)C(=O)NCC(=O)NCC(=O)N1CCC[C@H]1C(=O)N[C@@H](CO)C(=O)N[C@@H](CO)C(=O)NCC(=O)N[C@@H](CCC(=O)O)C(=O)N1CCC[C@H]1C(=O)N1CCC[C@H]1C(=O)N1CCC[C@H]1C(=O)N[C@@H](CO)C(N)=O [Example 368] (H-Y[Aib]QGT[αMePhe(2-F)]TSDY[αMeS]I[αMeL]LD[Orn]K([AEEA-γGlu-C18 diacid])AQ[Aib][Orn]FI[dE][αMeY]LLEGGPSSGEPPPS-NH2) | 7.33 | 9.6 | 2.62 | 111 | 37.4 | – | – | – | 0.242 | 0.481 | 0.0121 | 52.52 +/− 2.49**** % | – | –
7 | CC[C@H](C)[C@H](NC(=O)[C@H](Cc1ccccc1)NC(=O)[C@H](CCCN)NC(=O)C(C)(C)NC(=O)[C@H](CCC(N)=O)NC(=O)[C@H](C)NC(=O)[C@H](CCCCNC(=O)COCCOCCNC(=O)CC[C@H](NC(=O)CCCCCCCCCCCCCCCCC(=O)O)C(=O)O)NC(=O)[C@H](CCCN)NC(=O)[C@H](CC(=O)O)NC(=O)[C@H](CC(C)C)NC(=O)[C@](C)(CC(C)C)NC(=O)[C@@H](NC(=O)[C@](C)(CO)NC(=O)[C@H](Cc1ccncc1)NC(=O)[C@H](CC(=O)O)NC(=O)[C@H](CO)NC(=O)[C@@H](NC(=O)[C@](C)(Cc1ccccc1F)NC(=O)[C@@H](NC(=O)CNC(=O)[C@H](CCC(N)=O)NC(=O)C(C)(C)NC(=O)[C@@H](N)Cc1ccc(O)cc1)[C@@H](C)O)[C@@H](C)O)[C@@H](C)CC)C(=O)N[C@H](CCC(=O)O)C(=O)N[C@@](C)(Cc1ccc(O)cc1)C(=O)N[C@@H](CC(C)C)C(=O)N[C@@H](CC(C)C)C(=O)N[C@@H](CCC(=O)O)C(=O)NCC(=O)NCC(=O)N1CCC[C@H]1C(=O)N[C@@H](CO)C(=O)N[C@@H](CO)C(=O)NCC(=O)N[C@@H](CCC(=O)O)C(=O)N1CCC[C@H]1C(=O)N1CCC[C@H]1C(=O)N1CCC[C@H]1C(=O)N[C@@H](CO)C(N)=O [Example 369] (H-Y[Aib]QGT[αMePhe(2-F)]TSD[4Pal][αMeS]I[αMeL]LD[Orn]K([AEEA-γGlu-C18 diacid])AQ[Aib][Orn]FI[dE][αMeY]LLEGGPSSGEPPPS-NH2) | 11.3 | 8.2 | 4.58 | 111 | 26.8 | – | – | – | 0.301 | 0.873 | 0.0263 | 52.91 +/− 2.17**** % | – | –
8 | CC[C@H](C)[C@H](NC(=O)[C@H](Cc1ccccc1)NC(=O)[C@H](C)NC(=O)C(C)(C)NC(=O)[C@H](CCC(N)=O)NC(=O)[C@H](C)NC(=O)[C@H](CCCCNC(=O)COCCOCCNC(=O)CC[C@H](NC(=O)CCCCCCCCCCCCCCCCC(=O)O)C(=O)O)NC(=O)[C@H](CCCCN)NC(=O)[C@H](CC(=O)O)NC(=O)[C@H](CC(C)C)NC(=O)[C@H](CC(C)C)NC(=O)[C@@H](NC(=O)[C@H](CO)NC(=O)[C@H](Cc1ccc(O)cc1)NC(=O)[C@H](CC(=O)O)NC(=O)[C@H](CO)NC(=O)[C@@H](NC(=O)[C@](C)(Cc1ccccc1F)NC(=O)[C@@H](NC(=O)CNC(=O)[C@H](CCC(N)=O)NC(=O)C(C)(C)NC(=O)[C@@H](N)Cc1ccc(O)cc1)[C@@H](C)O)[C@@H](C)O)[C@@H](C)CC)C(=O)N[C@@H](CCC(=O)O)C(=O)N[C@@H](Cc1ccc(O)cc1)C(=O)N[C@@H](CC(C)C)C(=O)N[C@@H](CCC(=O)O)C(=O)N[C@@H](CCC(=O)O)C(=O)NCC(=O)NCC(=O)N1CCC[C@H]1C(=O)N[C@@H](CO)C(=O)N[C@@H](CO)C(=O)NCC(=O)N[C@@H](C)C(=O)N1CCC[C@H]1C(=O)N1CCC[C@H]1C(=O)N1CCC[C@H]1C(=O)N[C@@H](CO)C(N)=O [Example 387] (H-Y[Aib]QGT[αMePhe(2-F)]TSDYSILLDKK([AEEA-γGlu-C18 diacid])AQ[Aib]AFIEYLEEGGPSSGAPPPS-NH2) | 14 | 9.2 | 5.64 | 184 | 26.5 | – | – | – | 0.255 | 2.14 | 0.0276 | – | – | –
